In patent US8207321B2, “Method of obtaining idolocarbazoles using biosynthetic rebeccamycin genes” (Universidad De Oviedo, priority 2001, dated 2012):

Assays:
[1] = tested on: several tumors implanted in mice; settings: cited from earlier work
Staphylococcus aureus = settings: cited from earlier work
S. albus J1074/pKC505 = test: Paper disc growth inhibition by exogenously added rebeccamycin, control strain; format: cell-based, Streptomyces albus; settings: 100 μg rebeccamycin on paper disc, Bennett's agar, 28° C. for 4 days
Protocol: (§1) Therefore, cosmids 14E8 and 17A12, which conferred the ability to produce rebeccamycin, should also confer resistance to rebeccamycin. In order to confirm this point, we studied the effect of exogenously added rebeccamycin on the growth of S. albus J1074/14E8 and control strain S. albus J1074/pKC505. For this purpose, spores of each strain were used to inoculate plates of Bennett's agar (Kieser et al. Practical Streptomyces genetics, The John Innes Foundation, Norwich, UK, 2000) containing 25 μg/ml apramycin. Different amounts of rebeccamycin (dissolved in acetone) were added to paper discs placed on this pre-seeded medium. The plates were left at 4° C. for an hour to allow diffusion of the rebeccamycin solution, and then they were incubated at 28° C. for 4 days.

S. albus J1074 = test: Growth inhibition of Streptomyces spp.; format: cell-based, Streptomyces albus
S. albus J1074/14E8 = test: Paper disc growth inhibition by exogenously added rebeccamycin, strain with cosmid 14E8; format: cell-based, Streptomyces albus; settings: Bennett's agar, 28° C. for 4 days
Protocol: as §1

Streptococcus faecalis = settings: cited from earlier work
Micrococcus luteus = settings: cited from earlier work
several tumor cell lines = settings: cited from earlier work

## CO[C@H]1[C@H](O)[C@@H](O)[C@H](n2c3c(Cl)cccc3c3c4c(c5c6cccc(Cl)c6[nH]c5c32)C(=O)NC4=O)O[C@@H]1CO [Rebeccamycin]
[1]
  antitumor activity in vivo: antitumor activity
Staphylococcus aureus
  antibacterial activity: antibacterial activity
S. albus J1074/pKC505
  growth of S. albus J1074/pKC505: totally inhibited
S. albus J1074
  inhibition of growth of Streptomyces spp. including S. albus J1074: weak inhibition of growth
S. albus J1074/14E8; 100 μg rebeccamycin on paper disc
  growth of S. albus J1074/14E8: fully resistant
S. albus J1074/14E8; 200 μg rebeccamycin on paper disc
  growth of S. albus J1074/14E8: fully resistant
Streptococcus faecalis
  antibacterial activity: antibacterial activity
Micrococcus luteus
  antibacterial activity: antibacterial activity
Several tumor cell lines
  antitumor activity in vitro: antitumor activity
